Test results published in PubChem BioAssay (NCI).
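A five-concentration, 48-hour dose response in 96-well plates underlies each endpoint, interpolated linearly between surrounding concentrations. GI50 marks 50% less growth. TGI denotes the concentration required for complete inhibition of growth.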

Legend:
Experiment in all cases: NCI anticancer screen, dose series, 48 h
[1] = test system: 786-0 renal
[2] = test system: A498 renal
[3] = test system: A549 NSCLC
[4] = test system: ACHN renal
[5] = test system: BT-549 breast
[6] = test system: CAKI-1 renal
[7] = test system: CCRF-CEM leukemia
[8] = test system: COLO 205 colon
[9] = test system: DU-145 prostate
[10] = test system: EKVX NSCLC
[11] = test system: HCC-2998 colon
[12] = test system: HCT-116 colon
[13] = test system: HCT-15 colon
[14] = test system: HL-60(TB) leukemia
[15] = test system: HOP-62 NSCLC
[16] = test system: HOP-92 NSCLC
[17] = test system: HS 578T breast
[18] = test system: HT29 colon
[19] = test system: IGROV1 ovarian
[20] = test system: K-562 leukemia
[21] = test system: KM12 colon
[22] = test system: LOX IMVI melanoma
[23] = test system: M14 melanoma
[24] = test system: MALME-3M melanoma
[25] = test system: MCF7 breast
[26] = test system: MDA-MB-435
[27] = test system: MDA-MB-468 breast
[28] = test system: MOLT-4 leukemia
[29] = test system: NCI-H226 lung
[30] = test system: NCI-H23 lung
[31] = test system: NCI-H460 lung
[32] = test system: NCI-H522 lung
[33] = test system: NCI/ADR-RES ovarian
[34] = test system: OVCAR-3 ovarian
[35] = test system: OVCAR-4 ovarian
[36] = test system: OVCAR-5 ovarian
[37] = test system: OVCAR-8 ovarian
[38] = test system: PC-3 prostate
[39] = test system: RPMI-8226 leukemia
[40] = test system: RXF 393 renal
[41] = test system: SF-268 CNS
[42] = test system: SF-295 CNS
[43] = test system: SF-539 CNS
[44] = test system: SK-MEL-2 melanoma
[45] = test system: SK-MEL-28 melanoma
[46] = test system: SK-MEL-5 melanoma
[47] = test system: SK-OV-3 ovarian
[48] = test system: SN12C renal
[49] = test system: SNB-19 CNS
[50] = test system: SNB-75 CNS
[51] = test system: SW-620 colon
[52] = test system: T-47D breast
[53] = test system: TK-10 renal
[54] = test system: U251 CNS
[55] = test system: UACC-257 melanoma
[56] = test system: UACC-62 melanoma
[57] = test system: SR leukemia

**Q.** Which results are given for `CCCCCCCCCCCCCCCCCCCC(=O)NCCc1c[nH]c2ccc(OC(=O)NOCCOCCOCCOCCOCCOCCOCCOCCOCCOCCOCCOCCOCCOCCOCCOCCOCCOCCOCCOCCOCCOCCOC)cc12`?
**A.** GI50 [1]: 31 µM; TGI [1]: 89 µM; GI50 [2]: 25.9 µM; TGI [2]: 89.9 µM; GI50 [3]: 17.7 µM; TGI [3]: 47.9 µM; GI50 [4]: 45.7 µM; TGI [4]: > 100 µM; GI50 [5]: 14.1 µM; TGI [5]: 28.5 µM; GI50 [6]: > 100 µM; TGI [6]: > 100 µM; GI50 [7]: 13.5 µM; TGI [7]: 33.8 µM; GI50 [8]: 16.6 µM; TGI [8]: 30.9 µM; GI50 [9]: 28 µM; TGI [9]: > 100 µM; GI50 [10]: 20.9 µM; TGI [10]: 88.4 µM; GI50 [11]: 15.6 µM; TGI [11]: 30 µM; GI50 [12]: 17.4 µM; TGI [12]: 38.2 µM; GI50 [13]: 54.4 µM; TGI [13]: > 100 µM; GI50 [14]: 14.4 µM; TGI [14]: 32.7 µM; GI50 [15]: 17.8 µM; TGI [15]: 36.3 µM; GI50 [16]: 6.3 µM; TGI [16]: 44.7 µM; GI50 [17]: 16.6 µM; TGI [17]: 41.2 µM; GI50 [18]: 15.6 µM; TGI [18]: 30.8 µM; GI50 [19]: 21.4 µM; TGI [19]: 57.1 µM; GI50 [20]: 17.7 µM; TGI [20]: 70.9 µM; GI50 [21]: 19.8 µM; TGI [21]: 41.2 µM; GI50 [22]: 14.9 µM; TGI [22]: 28.5 µM; GI50 [23]: 17.5 µM; TGI [23]: 35.2 µM; GI50 [24]: 14.4 µM; TGI [24]: 29.3 µM; GI50 [25]: 11 µM; TGI [25]: 28.5 µM; GI50 [26]: 20.6 µM; TGI [26]: 48.6 µM; GI50 [27]: 11.9 µM; TGI [27]: 26.3 µM; GI50 [28]: 5.32 µM; TGI [28]: 24.9 µM; GI50 [29]: 17.4 µM; TGI [29]: 38.5 µM; GI50 [30]: 19.9 µM; TGI [30]: 46.2 µM; GI50 [31]: 23.4 µM; TGI [31]: 79.4 µM; GI50 [32]: 14.9 µM; TGI [32]: 28.8 µM; GI50 [33]: > 100 µM; TGI [33]: > 100 µM; GI50 [34]: 13.2 µM; TGI [34]: 53.3 µM; GI50 [35]: 18.7 µM; TGI [35]: 87.7 µM; GI50 [36]: 17.3 µM; TGI [36]: 41.9 µM; GI50 [37]: 16.4 µM; TGI [37]: 46.2 µM; GI50 [38]: 18.3 µM; TGI [38]: 70.9 µM; GI50 [39]: 11.8 µM; TGI [39]: 37.6 µM; GI50 [40]: 19.7 µM; TGI [40]: 53.6 µM; GI50 [41]: 14.8 µM; TGI [41]: 52.7 µM; GI50 [42]: 17.8 µM; TGI [42]: 36.7 µM; GI50 [43]: 17.9 µM; TGI [43]: 40 µM; GI50 [44]: 12.8 µM; TGI [44]: 26 µM; GI50 [45]: 15.9 µM; TGI [45]: 33.9 µM; GI50 [46]: 13.5 µM; TGI [46]: 26.5 µM; GI50 [47]: 19.1 µM; TGI [47]: 41.3 µM; GI50 [48]: 15.1 µM; TGI [48]: 39.5 µM; GI50 [49]: 20.3 µM; TGI [49]: 51.7 µM; GI50 [50]: 26.9 µM; TGI [50]: 86 µM; GI50 [51]: 17.8 µM; TGI [51]: 33.1 µM; GI50 [52]: 9.98 µM; TGI [52]: 23.2 µM; GI50 [53]: 19.5 µM; TGI [53]: 56.1 µM; GI50 [54]: 16.7 µM; TGI [54]: 32.8 µM; GI50 [55]: 14.7 µM; TGI [55]: 30.2 µM; GI50 [56]: 17 µM; TGI [56]: 31.4 µM

**Q.** What does the source list for `Clc1ccc(-c2nc3c4c(-c5ccccc5)c(-c5ccccc5)n(Cc5ccccc5)c4ncn3n2)cc1`?
**A.** GI50 [1]: 12.6 µM; TGI [1]: 93.3 µM; GI50 [2]: 23 µM; TGI [2]: 63 µM; GI50 [3]: 20.6 µM; TGI [3]: > 100 µM; GI50 [4]: 20.8 µM; TGI [4]: 79.7 µM; GI50 [5]: 4.35 µM; TGI [5]: 22.5 µM; GI50 [6]: 21.4 µM; TGI [6]: 89.2 µM; GI50 [7]: 9.15 µM; TGI [7]: 51 µM; GI50 [8]: 4.66 µM; TGI [8]: 16.8 µM; GI50 [9]: 19.1 µM; TGI [9]: > 100 µM; GI50 [10]: 4.6 µM; TGI [10]: 48.7 µM; GI50 [11]: 6.37 µM; TGI [11]: 39.7 µM; GI50 [12]: 3.53 µM; TGI [12]: 35.2 µM; GI50 [13]: 20.5 µM; TGI [13]: > 100 µM; GI50 [14]: 3.08 µM; TGI [14]: 15.5 µM; GI50 [15]: 16.1 µM; TGI [15]: 38.4 µM; GI50 [16]: 1.9 µM; TGI [16]: 9.53 µM; GI50 [17]: 9.38 µM; TGI [17]: 38.2 µM; GI50 [18]: 6.18 µM; TGI [18]: > 100 µM; GI50 [19]: 8.02 µM; TGI [19]: 85.8 µM; GI50 [20]: 4.84 µM; TGI [20]: > 100 µM; GI50 [21]: 5.17 µM; TGI [21]: 36.5 µM; GI50 [22]: 10.9 µM; TGI [22]: 25.2 µM; GI50 [23]: 12 µM; TGI [23]: 77.7 µM; GI50 [24]: 2.75 µM; TGI [24]: 9.5 µM; GI50 [25]: 8.31 µM; TGI [25]: 61.8 µM; GI50 [26]: 4.92 µM; TGI [26]: 71.3 µM; GI50 [27]: 2.84 µM; TGI [27]: 10.3 µM; GI50 [28]: 11.7 µM; TGI [28]: 58.2 µM; GI50 [29]: 16.3 µM; TGI [29]: 56.9 µM; GI50 [30]: 6.88 µM; TGI [30]: 44.4 µM; GI50 [31]: 8.24 µM; TGI [31]: 35.4 µM; GI50 [32]: 5.95 µM; TGI [32]: 43.7 µM; GI50 [33]: 24.2 µM; TGI [33]: 97 µM; GI50 [34]: 4.76 µM; TGI [34]: > 100 µM; GI50 [35]: 10.3 µM; TGI [35]: > 100 µM; GI50 [36]: 21.3 µM; TGI [36]: 90.3 µM; GI50 [37]: 12.5 µM; TGI [37]: > 100 µM; GI50 [38]: 3.51 µM; TGI [38]: 97.3 µM; GI50 [39]: 2.46 µM; TGI [39]: 8.69 µM; GI50 [40]: 14.2 µM; TGI [40]: 39.9 µM; GI50 [41]: 12.2 µM; TGI [41]: > 100 µM; GI50 [42]: 11.5 µM; TGI [42]: 25.7 µM; GI50 [43]: 15.8 µM; TGI [43]: 33.5 µM; GI50 [45]: 5.33 µM; TGI [45]: 47.1 µM; GI50 [46]: 3.26 µM; TGI [46]: 12.9 µM; GI50 [47]: 12.8 µM; TGI [47]: 46.7 µM; GI50 [48]: 7.73 µM; TGI [48]: 46 µM; GI50 [49]: 4.8 µM; TGI [49]: > 100 µM; GI50 [57]: 13 µM; TGI [57]: 36.5 µM; GI50 [51]: 12.5 µM; TGI [51]: > 100 µM; GI50 [52]: 3.5 µM; TGI [52]: 62.5 µM; GI50 [53]: 19 µM; TGI [53]: > 100 µM; GI50 [54]: 4.58 µM; TGI [54]: 33.5 µM; GI50 [55]: 4.17 µM; TGI [55]: 34.2 µM; GI50 [56]: 3.59 µM; TGI [56]: 15.2 µM
